Experimental data taken from patent US9586951B2 (FUJIFILM Corporation, priority 2013, dated 2017).

Assays:
ATM = target: T1, ATM (Homo sapiens, UniProt Q13315); experiment: ATM inhibition test (phosphorylation of Chk2 generated by ionizing radiation, AlphaScreen SureFire); format: cell-based; details: phosphorylated Chk2 in NCI-H460 cells, ionizing radiation 8Gy, 1 hour after test compound treatment; read-out: ATM inhibitory activity
T1 construct: detecting phosphorylation of Chk2 in a human non-small cell lung cancer cell line NCI-H460 (ATCC company); host or cells: NCI-H460 human non-small cell lung cancer cells
Method in brief: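 Phosphorylated Chk2 read by AlphaScreen SureFire in human non-small cell lung cancer NCI-H460 cells, 1 hour after 8Gy ionizing radiation at 37° C. Compound added 1 hour before irradiation. Percent inhibition normalised between irradiated and non-irradiated drug-untreated signals.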

[1] = test system: human non-small cell lung cancer cell line NCI-H460; experiment: Cell proliferation inhibition test by sensitivity-enhancing to ionizing radiation (Cell Titer Glo); format: cell-based; details: concentration in which SER became 2, NCI-H460 cells, ionizing radiation 2 Gy, cultured 120 hour
Method in brief: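 Cells seeded at 2×10^3 cells/mL in RPMI-1640 with 10% FBS; after 24 h, compound added (0.1% DMSO), and 30 min later half the plates irradiated at 2 Gy. After 120 hour at 37° C, viability by Cell Titer Glo luminescence; SER2 is the concentration giving SER of 2 by sigmoidal fit.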

T1 sequence (Q13315 whole entry): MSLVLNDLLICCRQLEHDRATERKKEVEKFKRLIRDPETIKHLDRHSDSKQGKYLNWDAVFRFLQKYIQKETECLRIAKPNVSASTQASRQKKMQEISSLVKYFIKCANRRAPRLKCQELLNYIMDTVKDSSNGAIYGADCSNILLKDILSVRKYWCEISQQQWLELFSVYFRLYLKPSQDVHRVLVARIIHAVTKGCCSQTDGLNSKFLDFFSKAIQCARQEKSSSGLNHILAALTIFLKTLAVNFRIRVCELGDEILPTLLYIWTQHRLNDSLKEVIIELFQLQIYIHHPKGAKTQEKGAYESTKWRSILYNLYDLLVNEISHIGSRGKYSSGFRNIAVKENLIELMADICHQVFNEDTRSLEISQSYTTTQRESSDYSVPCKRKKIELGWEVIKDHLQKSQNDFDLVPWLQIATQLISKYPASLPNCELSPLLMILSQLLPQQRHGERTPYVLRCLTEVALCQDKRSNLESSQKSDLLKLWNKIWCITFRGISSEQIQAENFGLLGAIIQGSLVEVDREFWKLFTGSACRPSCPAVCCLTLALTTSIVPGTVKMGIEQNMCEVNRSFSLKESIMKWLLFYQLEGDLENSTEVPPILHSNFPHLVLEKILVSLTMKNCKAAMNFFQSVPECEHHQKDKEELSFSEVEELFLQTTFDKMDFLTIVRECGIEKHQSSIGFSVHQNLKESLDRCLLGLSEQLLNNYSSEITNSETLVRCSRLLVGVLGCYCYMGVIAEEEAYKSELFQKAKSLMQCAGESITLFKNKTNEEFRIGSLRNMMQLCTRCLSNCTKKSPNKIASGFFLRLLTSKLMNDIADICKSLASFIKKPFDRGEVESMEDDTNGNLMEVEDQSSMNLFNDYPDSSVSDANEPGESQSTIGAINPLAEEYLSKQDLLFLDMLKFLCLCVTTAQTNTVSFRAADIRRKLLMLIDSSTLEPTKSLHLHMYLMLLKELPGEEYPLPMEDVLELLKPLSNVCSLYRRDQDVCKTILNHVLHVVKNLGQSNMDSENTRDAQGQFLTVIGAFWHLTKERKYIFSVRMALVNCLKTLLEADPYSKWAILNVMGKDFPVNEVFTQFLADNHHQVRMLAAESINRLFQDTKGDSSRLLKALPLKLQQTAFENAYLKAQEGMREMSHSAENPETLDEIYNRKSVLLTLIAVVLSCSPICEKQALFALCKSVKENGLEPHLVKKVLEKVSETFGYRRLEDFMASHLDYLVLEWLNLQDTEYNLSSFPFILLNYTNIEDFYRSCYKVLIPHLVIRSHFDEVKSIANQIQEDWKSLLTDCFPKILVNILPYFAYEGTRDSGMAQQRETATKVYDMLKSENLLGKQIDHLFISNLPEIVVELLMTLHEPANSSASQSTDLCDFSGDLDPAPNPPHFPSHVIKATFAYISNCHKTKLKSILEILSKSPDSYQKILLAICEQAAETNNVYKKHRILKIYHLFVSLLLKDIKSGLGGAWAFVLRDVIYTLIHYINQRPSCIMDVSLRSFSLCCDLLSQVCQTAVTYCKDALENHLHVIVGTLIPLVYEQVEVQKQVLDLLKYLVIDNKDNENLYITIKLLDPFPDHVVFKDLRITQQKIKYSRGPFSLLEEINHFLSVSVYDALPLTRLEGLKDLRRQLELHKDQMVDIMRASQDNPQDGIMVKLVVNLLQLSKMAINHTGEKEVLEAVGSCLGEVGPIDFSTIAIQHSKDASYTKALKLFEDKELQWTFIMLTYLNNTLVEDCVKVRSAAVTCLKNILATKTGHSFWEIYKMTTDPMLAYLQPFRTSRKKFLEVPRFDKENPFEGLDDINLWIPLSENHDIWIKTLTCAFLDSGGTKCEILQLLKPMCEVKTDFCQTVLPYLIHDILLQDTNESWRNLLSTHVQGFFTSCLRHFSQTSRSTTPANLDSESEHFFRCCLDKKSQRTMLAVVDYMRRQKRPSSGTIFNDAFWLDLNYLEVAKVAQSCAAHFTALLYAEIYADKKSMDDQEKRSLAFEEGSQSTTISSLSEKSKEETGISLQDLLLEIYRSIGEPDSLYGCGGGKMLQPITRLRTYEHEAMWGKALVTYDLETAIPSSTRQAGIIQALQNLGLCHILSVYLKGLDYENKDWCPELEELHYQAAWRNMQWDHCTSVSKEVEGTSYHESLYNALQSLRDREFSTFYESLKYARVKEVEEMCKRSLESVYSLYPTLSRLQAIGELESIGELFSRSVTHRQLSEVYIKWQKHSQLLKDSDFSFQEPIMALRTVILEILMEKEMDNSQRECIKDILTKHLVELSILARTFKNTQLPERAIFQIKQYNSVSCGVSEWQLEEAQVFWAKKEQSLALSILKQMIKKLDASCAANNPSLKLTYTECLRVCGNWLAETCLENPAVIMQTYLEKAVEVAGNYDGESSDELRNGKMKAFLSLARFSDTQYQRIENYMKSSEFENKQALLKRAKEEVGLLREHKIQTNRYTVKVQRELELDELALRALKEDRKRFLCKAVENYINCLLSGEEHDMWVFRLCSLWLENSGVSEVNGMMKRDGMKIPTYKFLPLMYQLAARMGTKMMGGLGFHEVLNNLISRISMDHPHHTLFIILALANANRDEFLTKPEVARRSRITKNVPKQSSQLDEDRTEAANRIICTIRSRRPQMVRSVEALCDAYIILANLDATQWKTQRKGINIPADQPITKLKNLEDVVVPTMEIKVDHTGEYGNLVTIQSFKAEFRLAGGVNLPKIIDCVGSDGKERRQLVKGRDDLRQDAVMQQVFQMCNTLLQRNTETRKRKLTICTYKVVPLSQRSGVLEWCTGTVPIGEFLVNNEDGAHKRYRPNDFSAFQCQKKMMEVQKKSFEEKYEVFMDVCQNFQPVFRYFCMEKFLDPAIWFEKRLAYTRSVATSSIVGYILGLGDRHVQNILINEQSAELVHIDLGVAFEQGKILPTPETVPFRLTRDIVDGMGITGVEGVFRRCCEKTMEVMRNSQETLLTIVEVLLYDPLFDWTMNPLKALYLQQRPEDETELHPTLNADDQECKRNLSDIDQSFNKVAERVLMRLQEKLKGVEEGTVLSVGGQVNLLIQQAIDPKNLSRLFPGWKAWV

| IC50 (ATM) [nM] | Structure (SMILES) | SER2 (concentration at which the radiation sensitivity-enhancement ratio reaches 2) ([1]; Homo sapiens, NCI-H460, 120 h) [nM] | SER2 (concentration at which the radiation sensitivity-enhancement ratio reaches 2) [1] [nM] |
| --- | --- | --- | --- |
| < 100 | COc1ccnc(CNc2ccc3c(c2)Cc2cccc(-c4cc(N5CCOCC5)cc(=O)[nH]4)c2O3)c1 [Example 2-2-38, 6-(7-(((4-Methoxypyridin-2-yl)methyl)amino)-9H-xanthen-4-yl)-4-morpholino pyridin-2(1H)-one] | 100 to 500 |  |
| < 100 | Cc1ccnc(C(C)Nc2ccc3c(c2)Sc2cccc(-c4cc(N5CCOCC5)cc(=O)[nH]4)c2S3)c1 (single isomer, unassigned) [Example 1-12-135-2, 6-(7-((1-(4-methylpyridin-2-yl)ethyl)amino)thianthren-1-yl)-4-morpholinopyridin-2(1H)-one] |  | 100 to 500 |
| < 100 | Cc1ccc(CNc2ccc3c(c2)Sc2cccc(-c4cc(N5CCOCC5)cc(=O)[nH]4)c2S3)cn1 [Example 1-12-15, 6-(7-(((6-Methylpyridin-3-yl)methyl)amino)thianthren-1-yl)-4-morpholino pyridin-2 (1H)-one] | 100 to 500 |  |
| < 100 | CC(Nc1ccc2c(c1)Cc1cccc(-c3cc(N4CCOCC4)cc(=O)[nH]3)c1O2)c1nccc(CF)n1 (single isomer, unassigned) [Example 2-14-94-1, 6-(7-((1-(4-(fluoromethyl)pyrimidin-2-yl)ethyl)amino)-9H-xanthen-4-yl)-4-morpholinopyridin-2(1H)-one] | < 100 |  |
| < 100 | Cc1cnc(C(C)Nc2ccc3c(c2)Cc2cccc(-c4cc(N5CCOCC5)cc(=O)[nH]4)c2O3)nc1 (centres unmarked) [Example 2-14-80, 6-(7-((1-(5-Methylpyrimidin-2-yl)ethyl)amino)-9H-xanthen-4-yl)-4-morpholino pyridin-2 (1H)-one] | 100 to 500 |  |
| < 100 | COc1cc(CNc2ccc3c(c2)Cc2cccc(-c4cc(N5CCOCC5)cc(=O)[nH]4)c2O3)cnc1OC [Example 2-2-35, 6-(7-(((5,6-Dimethoxypyridin-3-yl)methyl)amino)-9H-xanthen-4-yl)-4-morpholino pyridin-2(1H)-one] | 500 to 2000 |  |
| < 100 | CC(Nc1ccc2c(c1)Cc1cccc(-c3cc(N4CCOCC4)cc(=O)[nH]3)c1O2)c1nccc(C(F)F)n1 (stereo not drawn) [Example 2-14-62, 6-(7-((l-(4-(Difluoromethyl)pyrimidin-2-yl)ethyl)amino)-9H-xanthen-4-yl)-4-morpholino pyridin-2(1H)-one] | 100 to 500 |  |
| < 100 | Cc1cccc(C(CCN(C)C)Nc2ccc3c(c2)Sc2cccc(-c4cc(N5CCOCC5)cc(=O)[nH]4)c2S3)n1 (centres unmarked) [Example 1-22-1, 6-(7-((3-(dimethylamino)-1-(6-methylpyridin-2-yl)propyl)amino)thianthren-1-yl)-4-morpholinopyridin-2(1H)-one] | 100 to 500 |  |
| < 100 | O=c1cc(N2CCOCC2)cc(-c2cccc3c2Oc2ccc(NCc4cc(C5CC5)ccn4)cc2C3)[nH]1 [Example 2-13-10, 6-(7-(((4-Cyclopropylpyridin-2-yl)methyl)amino)-9H-xanthen-4-yl)-4-morpholino pyridin-2(1H)-one] | 100 to 500 |  |
| < 100 | O=c1cc(N2CCOCC2)cc(-c2c(F)ccc3c2Oc2ccc(NCc4cc(C5CC5)ccn4)cc2C3)[nH]1 [Example 2-46-3, 6-(7-(((4-Cyclopropylpyridin-2-yl)methyl)amino)-3-fluoro-9H-xanthen-4-yl)-4-morpholinopyridin-2(1H)-one] | < 100 |  |
| < 100 | O=c1cc(N2CCOCC2)cc(-c2cccc3c2Oc2ccc(NCc4ccnc(Cl)c4)cc2C3)[nH]1 [Example 2-2-52, 6-(7-(((2-Chloropyridin-4-yl)methyl)amino)-9H-xanthen-4-yl)-4-morpholino pyridin-2 (1H)-one] | 500 to 2000 |  |

More lines, now with the values behind:

| Structure (SMILES) | IC50 (ATM) [nM] | SER2 (concentration at which the radiation sensitivity-enhancement ratio reaches 2) ([1]; Homo sapiens, NCI-H460, 120 h) [nM] | SER2 (concentration at which the radiation sensitivity-enhancement ratio reaches 2) [1] [nM] |
| --- | --- | --- | --- |
| CC(CN1C[C@@H](C)O[C@@H](C)C1)Nc1ccc2c(c1)Sc1cccc(-c3cc(N4CCOCC4)cc(=O)[nH]3)c1S2 (stereo partly drawn) [Example 1-13-12, 6-(7-((1-((2S,6R)-2,6- Dimethylmorpholino)propan-2-yl)amino)thianthren-1-yl)-4-morpholino pyridin-2(1H)-one] | < 100 | 100 to 500 |  |
| CC(Nc1ccc2c(c1)Sc1cccc(-c3cc(N4CCOCC4)cc(=O)[nH]3)c1S2)c1nccc(CF)n1 (centres unmarked) [Example 1-12-85, 6-(7-((1-(4-(Fluoromethyl)pyrimidin-2-yl)ethyl)amino)thianthren-1-yl)-4-morpholino pyridin-2(1H)-one] | < 100 | < 100 |  |
| C=C(C)c1cncc(CNc2ccc3c(c2)Cc2cccc(-c4cc(N5CCOCC5)cc(=O)[nH]4)c2O3)c1 [Example 2-14-10, 4-Morpholino-6-(7-(((5-(prop-1-en-2-yl)pyridin-3-yl)methyl)amino)-9H-xanthen-4-yl)pyridin-2 (1H)-one] | < 100 | 100 to 500 |  |
| CC(CN1CCN(c2ccccn2)CC1)Nc1ccc2c(c1)Sc1cccc(-c3cc(N4CCOCC4)cc(=O)[nH]3)c1S2 (centres unmarked) [Example 1-13-17, 4-Morpholino-6-(7-((1-(4-(pyridin-2-yl)piperazin-1-yl)propan-2-yl)amino)thianthren-1-yl)pyridin-2 (1H)-one] | < 100 | 100 to 500 |  |
| CN(C)c1ncc(CNc2ccc3c(c2)Cc2cccc(-c4cc(N5CCOCC5)cc(=O)[nH]4)c2O3)cn1 [Example 2-2-17, 6-(7-(((2-(Dimethylamino)pyrimidin-5-yl)methyl)amino)-9H-xanthen-4-yl)-4-morpholino pyridin-2(1H)-one] | < 100 | 500 to 2000 |  |
| O=c1cc(N2CCOCC2)cc(-c2cccc3c2Sc2ccc(N[C@@H]4CCCC[C@H]4N4CCOCC4)cc2S3)[nH]1 [Example 1-48-1, 4-Morpholino-6-(7-(((1R,2R)-2-morpholinocyclohexyl)amino)thianthren-1-yl)pyridin-2(1H)-one] | < 100 | 100 to 500 |  |
| Cc1cncc(C(C)Nc2ccc3c(c2)Sc2cccc(-c4cc(N5CCOCC5)cc(=O)[nH]4)c2S3)n1 (centres unmarked) [Example 1-12-73, 6-(7-((1-(6-Methylpyrazin-2-yl)ethyl)amino)thianthren-1-yl)-4-morpholino pyridin-2 (1H)-one] | < 100 | < 100 |  |
| COc1ccc(CNc2ccc3c(c2)Cc2cccc(-c4cc(N5CCOCC5)cc(=O)[nH]4)c2S3)cn1 [Example 3-8-10, 6-(7-(((6-Methoxypyridin-3-yl)methyl)amino)-9H-thioxanthen-4-yl)-4-morpholino pyridin-2(1H)-one] | < 100 | 100 to 500 |  |
| Cn1cc(-c2ccnc(CNc3ccc4c(c3)Cc3cccc(-c5cc(N6CCOCC6)cc(=O)[nH]5)c3O4)c2)cn1 [Example 2-2-74, 6-(7-(((4-(1-Methyl-1H-pyrazol-4-yl)pyridin-2-yl)methyl)amino)-9H-xanthen-4-yl)-4-morpholino pyridin-2(1H)-one] | < 100 | 100 to 500 |  |
| COc1ccnc(CNc2ccc3c(c2)Cc2ccnc(-c4cc(N5CCOCC5)cc(=O)[nH]4)c2O3)c1 [Example 2-41-4, 6-(7-(((4-Methoxypyridin-2-yl)methyl)amino)-5H-chromeno[2,3-c]pyridin-1-yl)-4-morpholino pyridin-2 (1H)-one] | < 100 | 100 to 500 |  |
| Cc1cnc(C(C)Nc2ccc3c(c2)Cc2cccc(-c4cc(N5CCOCC5)cc(=O)[nH]4)c2O3)cn1 (single isomer, unassigned) [Example 2-14-90-2, 6-(7-((1-(5-methylpyrazin-2-yl)ethyl)amino)-9H-xanthen-4-yl)-4-morpholinopyridin-2(1H)-one] | < 100 | < 100 |  |
| N#Cc1ccnc(CNc2ccc3c(c2)Sc2cccc(-c4cc(N5CCOCC5)cc(=O)[nH]4)c2S3)c1 [Example 1-12-28, 2-(((6-(4-Morpholino-6-oxo-1,6-dihydro-pyridin-2-yl)thianthren-2-yl)amino)methyl) isonicotinonitrile] | < 100 | 100 to 500 |  |
| Cc1ccnc(C(C)Nc2ccc3c(c2)Sc2cccc(-c4cc(N5CCOCC5)cc(=O)[nH]4)c2S3)n1 (centres unmarked) [Example 1-12-69, 6-(7-((1-(4-Methylpyrimidin-2-yl)ethyl)amino)thianthren-1-yl)-4-morpholino pyridin-2(1H)-one] | < 100 | < 100 |  |
| CC(Nc1ccc2c(c1)Cc1cccc(-c3cc(N4CCOCC4)cc(=O)[nH]3)c1O2)c1nccc(CF)n1 (centres unmarked) [Example 2-14-61, 6-(7-((1-(4-(Fluoromethyl)pyrimidin-2-yl)ethyl)amino)-9H-xanthen-4-yl)-4-morpholino pyridin-2(1H)-one] | < 100 | < 100 |  |
